Results on 20 molecules are retold here after patent US9926315B2, “Triazolopyridine compounds and methods for the treatment of cystic fibrosis” (Flatley Discovery Lab, LLC, priority 2014, dated 2018).

The test deals with T1, human ΔF508-CFTR (Homo sapiens, UniProt P13569, DEL508-508).
T1 construct: expressed in transfected cells
Nature of the test: CFTR-YFP High Throughput Assay (HTS YFP flux assay, corrector / potentiator protocols). Type of test: cell-based. As to conditions: FRT cells stably expressing human ΔF508-CFTR and YFP-H148Q/I152L; for Emax: normalized to positive control, read-out: Emax (% Efficacy, EMax normalized to the positive control). The method, then:
Assays for Detecting and Measuring the Effect of Compounds on dF508-CFTR Channels CFRT-YFP High Throughput Assay: Corrector Assay:
The following protocol is designed to selectively screen small molecule compounds for F508del CFTR corrector activities in the HTS YFP flux assay. In this protocol, the cells are incubated with testing compounds for 24 hours, washed with PBS, stimulated with forskolin and a standard potentiator, and read on a 384-well HTS plate reader, such as the Hamamatsu FDDD-6000.
YFP fluorescence intensity is acquired at high speed before and after iodide buffer is injected to the assay cells. Iodide enters the cells via active CFTR channels in the plasma membrane, and quenches the YFP fluorescence. The rate of fluorescence quenching is proportionally related to the total CFTR activities in the cell membrane. dF508-CFTR corrector accelerates YFP quenching by increasing the number of CFTR molecules in the testing cell plasma membrane.
This method was initially developed for bench top plate readers (Galietta, 2001), and was adapted to the HTS format (Sui, 2010).
Fisher Rat Thyroid (FRT) cells stably expressing both human ΔF508-CFTR and a halide-sensitive yellow fluorescent protein (YFP-H148Q/I152L 25, 22) (Galietta, 2001) were cultured on plastic surface in Coon's modified Ham's F12 medium supplemented with FBS 10%, L-glutamine 2 mM, penicillin 100 U/mL, and streptomycin 100 μg/mL. G418 (0.75-1.0 mg/mL) and zeocin (3.2 μg/mL) were used for selection of FRT cells expressing ΔF508-CFTR and YFP. For primary screening, FRT cells were plated into 384-well black wall, transparent bottom microtiter plates (Costar; Corning Inc.) at a cell density of 20, 000-40, 000 per well. Test compound was applied to the cells at varying concentrations ranging from 2 nM-[…] in either a 2-fold or 3-fold dilution series. Cells were incubated in a cell culture incubator at 37° C. with 5% CO2 for 24-26 h. Assay plates were washed with DPBS media (Thermo, cat#SH30028.02) to remove unbound cells and compound. Stimulation media (25 μL) containing 20 μM Forskolin & 30 μM P3 [6-(Ethyl-phenyl-sulfonyl)-4-oxo-1, 4-dihydro-quinoline-3-carboxylic acid 2-methoxy-benzylamide] in Hams F-12 coon's modified media was added to the plate wells and incubated at room temperature for 60-120 min. 25 μL of HEPES-PBS-I buffer (10 mM HEPES, 1 mM MgCl2, 3 mM KCl, 1 mM CaCl2, 150 mM NaI) was then added and fluorescence quench curves (Excitation 500 nm/Emission 540 nm; exposure 136 ms) were immediately recorded on an FDSS-6000 plate reader (Hamamatsu). Quench rates were derived from least squares fitting of the data (Sui, 2010).
The following protocol is designed to selectively screen small molecule compounds for F508del CFTR potentiator activities in the HTS YFP flux assay. In this protocol, the cells are incubated at 27° C. for 24 hours with homogeneously boosted dF508-CFTR expression in the cell membrane by the low temperature, washed with PBS, stimulated with forskolin, and read on a 384-well HTS plate reader, such as the Hamamatsu […].
YFP fluorescence intensity is acquired at high speed before and after iodide buffer is injected to the assay cells. Iodide enters the cells via active CFTR channels in the plasma membrane, and quenches the YFP fluorescence. The rate of fluorescence quenching is proportionally related to the total CFTR activities in the cell membrane. dF508del-CFTR potentiators accelerate YFP quenching by increasing CFTR activities in the testing cell plasma membrane.
Fisher Rat Thyroid (FRT) cells stably expressing both human ΔF508-CFTR and a halide-sensitive yellow fluorescent protein (YFP-H148Q/I152L 25, 22) (Galietta, 2001) were cultured on plastic surface in Coon's modified Ham's F12 medium supplemented with FBS 10%, L-glutamine 2 mM, penicillin 100 U/mL, and streptomycin 100 μg/mL. G418 (0.75-1.0 mg/mL) and zeocin (3.2 μg/mL) were used for selection of FRT cells expressing ΔF508-CFTR and YFP. […]

T1 sequence (P13569 with tags, fused parts or gaps DEL508-508): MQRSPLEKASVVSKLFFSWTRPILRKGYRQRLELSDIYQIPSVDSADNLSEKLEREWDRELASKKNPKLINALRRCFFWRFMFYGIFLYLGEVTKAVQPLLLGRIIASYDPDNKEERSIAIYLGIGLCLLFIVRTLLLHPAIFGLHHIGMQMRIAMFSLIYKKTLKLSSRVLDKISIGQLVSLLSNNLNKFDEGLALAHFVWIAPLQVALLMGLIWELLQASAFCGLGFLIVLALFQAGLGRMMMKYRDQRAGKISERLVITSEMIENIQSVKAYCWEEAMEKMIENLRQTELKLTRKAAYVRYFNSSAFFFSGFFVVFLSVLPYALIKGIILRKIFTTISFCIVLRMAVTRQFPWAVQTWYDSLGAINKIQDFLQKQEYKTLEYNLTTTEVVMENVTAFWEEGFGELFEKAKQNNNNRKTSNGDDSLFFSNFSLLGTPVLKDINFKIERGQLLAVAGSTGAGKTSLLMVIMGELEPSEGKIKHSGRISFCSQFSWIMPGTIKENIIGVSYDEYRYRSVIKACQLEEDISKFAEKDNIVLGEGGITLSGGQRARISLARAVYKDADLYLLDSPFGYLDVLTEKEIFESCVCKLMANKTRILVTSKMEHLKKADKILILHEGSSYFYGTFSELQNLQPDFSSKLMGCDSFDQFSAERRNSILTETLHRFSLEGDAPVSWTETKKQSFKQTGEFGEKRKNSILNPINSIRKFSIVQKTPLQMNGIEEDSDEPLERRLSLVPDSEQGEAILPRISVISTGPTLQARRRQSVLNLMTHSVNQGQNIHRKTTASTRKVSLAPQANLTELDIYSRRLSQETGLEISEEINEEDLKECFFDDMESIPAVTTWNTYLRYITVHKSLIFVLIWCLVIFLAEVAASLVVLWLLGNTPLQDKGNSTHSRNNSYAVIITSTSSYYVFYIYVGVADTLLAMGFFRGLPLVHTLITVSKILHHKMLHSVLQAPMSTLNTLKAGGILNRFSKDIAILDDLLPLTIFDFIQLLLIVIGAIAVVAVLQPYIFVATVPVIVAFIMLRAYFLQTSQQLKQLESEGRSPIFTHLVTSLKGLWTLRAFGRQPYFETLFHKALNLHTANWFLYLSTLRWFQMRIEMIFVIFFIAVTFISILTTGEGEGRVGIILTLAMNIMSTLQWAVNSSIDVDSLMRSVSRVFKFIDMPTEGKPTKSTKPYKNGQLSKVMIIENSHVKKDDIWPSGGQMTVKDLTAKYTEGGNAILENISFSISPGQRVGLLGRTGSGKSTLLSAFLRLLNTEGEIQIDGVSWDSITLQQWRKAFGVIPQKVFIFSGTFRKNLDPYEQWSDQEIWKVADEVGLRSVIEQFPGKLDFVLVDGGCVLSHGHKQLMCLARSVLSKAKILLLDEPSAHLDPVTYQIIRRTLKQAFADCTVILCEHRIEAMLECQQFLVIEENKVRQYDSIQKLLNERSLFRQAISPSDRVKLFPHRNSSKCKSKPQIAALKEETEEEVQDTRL

Turning to `CCN(CC)S(=O)(=O)c1ccc2nnc(NCCC(C)(C)C)n2c1` [Example 45], the EC50 (commonly the midpoint of the concentration-response curve) was below 1000 nM and the Emax (usually the size of the effect at its maximum, as opposed to the concentration needed) was above 80%.

Regarding `CCN(CC)S(=O)(=O)c1ccc2nnc(N[C@@H]3CCc4ccccc43)n2c1` [Example 46], the EC50 was below 1000 nM and the Emax lay in the range of 40 to 80%.

As to `CC(C)N(C(C)C)S(=O)(=O)c1ccc2nnc(N[C@H](C)c3ccccc3)n2c1` [Example 47], the EC50 is below 1000 nM and the Emax lay within 40 to 80%.

As for `CCN(CC)S(=O)(=O)c1ccc2nnc(NCc3ccc(C(F)(F)F)cc3)n2c1` [Example 48], the EC50 is below 1000 nM and the Emax was above 80%.

As to `CCN(CC)S(=O)(=O)c1ccc2nnc(NCc3ccc(F)cc3)n2c1` [Example 49], the concentration giving a half-maximal response (EC50) was below 1000 nM and the Emax is above 80%.

In the case of `CCN(CC)S(=O)(=O)c1ccc2nnc(NCC3CCOCC3)n2c1` [Example 50], the EC50 was below 1000 nM and the Emax is above 80%.

As for `CCN(CC)S(=O)(=O)c1ccc2nnc(N[C@@H](c3ccccc3)C(C)C)n2c1` [Example 51], the EC50 is below 1000 nM and the Emax is above 80%.

As to `CCN(CC)S(=O)(=O)c1ccc2nnc(NCC3CCCCC3)n2c1` [Example 52], the EC50 lay in the range of 1000 to 10000 nM and the Emax is above 80%.

Consider `CCN(CC)S(=O)(=O)c1ccc2nnc(N[C@@H](Cc3ccccc3)C(=O)N3CCCCC3)n2c1` [Example 53], for which the EC50 was below 1000 nM and the Emax was above 80%.

`CCN(CC)S(=O)(=O)c1ccc2nnc(NCc3ccccc3F)n2c1` [Example 54]: the EC50 was 1000 to 10000 nM and the Emax was above 80%.

As for `CCN(CC)S(=O)(=O)c1ccc2nnc(NCc3ccc(OC(F)(F)F)cc3)n2c1` [Example 55], the EC50 was below 1000 nM and the Emax lay within 10 to 40%.

As to `CCN(CC)S(=O)(=O)c1ccc2nnc(NCc3cccc(C#N)c3)n2c1` [Example 56], the EC50 is below 1000 nM and the Emax is above 80%.

For the molecule `CCN(CC)S(=O)(=O)c1ccc2nnc(N[C@@H](C)C(=O)N3CCCCC3)n2c1` [Example 57], the EC50 is 1000 to 10000 nM and the Emax is 40 to 80%.

Consider `CCN(c1cccnc1)S(=O)(=O)c1ccc2nnc(N[C@H](C)c3ccccc3)n2c1` [Example 58, (R)—N-Ethyl-3-((1-phenylethyl)amino)-N-(pyridin-3-yl)-[1,2,4]triazolo[4,3-a]pyridine-6-sulfonamide], for which the EC50 was below 1000 nM and the maximum response (Emax) lay in the range of 40 to 80%.

In the case of `COc1ccc(S(=O)(=O)Nc2ccc3nnc(NCc4ccccc4)n3c2)cc1` [Example 59, N-(3-(Benzylamino)-[1,2,4]triazolo[4,3-a]pyridine-6-yl)-4-methoxybenzenesulfonamide], the EC50 was below 1000 nM and the Emax fell in the range of 40 to 80%.

As to `CCN(CC)S(=O)(=O)c1ccn2c(NCC(C)(C)C)nnc2c1` [Example 60, N,N-Diethyl-3-(neopentylamino)-[1,2,4]triazolo[4,3-a]pyridine-7-sulfonamide], the concentration for a half-maximal effect (EC50) was below 1000 nM and the Emax was above 80%.

`CCN(CC)S(=O)(=O)c1ccc2nnc(NCc3ccccc3)n2c1C` [Example 61, 3-(Benzylamino)-N,N-diethyl-5-methyl-[1,2,4]triazolo[4,3-a]pyridine-6-sulfonamide]: the EC50 was in the range of 1000 to 10000 nM and the Emax was 10 to 40%.

On to `C[C@@H](Nc1nnc2ccc(S(=O)(=O)c3ccccc3)cn12)c1ccccc1` [Example 62, (R)—N-(1-Phenylethyl)-6-(phenylsulfonyl)-[1,2,4]triazolo[4,3-a]pyridin-3-amine], for which the EC50 is below 1000 nM and the Emax was above 80%.

Take `O=S(=O)(c1ccccc1)c1ccc2nnc(NCc3ccc(C(F)(F)F)cc3)n2c1` [Example 63]: the EC50 is below 1000 nM and the Emax lay within 40 to 80%.

Regarding `O=S(=O)(c1ccccc1)c1ccc2nnc(NC3Cc4ccccc4C3)n2c1` [Example 64], the EC50 was below 1000 nM and the Emax was above 80%.
